# Laboratory results from US20230000773A1, “NOVEL HEADGROUP LIPID COMPOUNDS AND COMPOSITIONS FOR INTRACELLULAR DELIVERY OF THERAPEUTIC AGENTS” (ModernaTX, Inc., priority 2019, published 2023).
# Key:
# [1] = Surface hydrophobicity by Generalized Polarization by Laurdan (GPL); format: physicochemical; settings: normalized Generalized Polarization by Laurdan; higher N-GP = less polar surface
# Source text: (§1) Nanoparticle compositions including a therapeutic and/or prophylactic can be optimized according to the selection of a compound according to Formula (I), (I-1), (A), (A-1), (A-1a), or (A-1b), the selection of additional lipids, the amount of each lipid in the lipid component, and the wt:wt ratio of the lipid component to the therapeutic and/or prophylactic. Nanoparticle compositions including DSPC as a phospholipid, cholesterol as a structural lipid, PEG 2 as a PEG lipid, and a compound according to Formula (I), (I-1), (A), (A-1), (A-1a), or (A-1b) were prepared. The ratios of the lipids were 50:10:38:2 mol % for the lipid according to Formula (I), (I-1), (A), (A-1), (A-1a), or (A-1b):DSPC:cholesterol:PEG 2.
# (§2) Laurdan, a fluorescent aminonaphthalene ketone lipid, was post-inserted into the nanoparticle surface and the fluorescence spectrum of Laurdan was collected to determine the normalized Generalized Polarization (N-GP). Higher N-GP indicates a less polar surface.
# [2] = Heparin-sepharose binding of nanoparticles
# [3] = Apparent LNP pKa by 2-(p-toluidino)-6-napthalene sulfonic acid (TNS) assay; format: physicochemical; settings: pH at half of maximum fluorescence
# [4] = Size and polydispersity index of nanoparticles comprising compounds of the disclosure; format: physicochemical; settings: compound:DSPC:cholesterol:PEG 2 50:10:38:2 mol %
# Source text: Lipid nanoparticles (e.g., empty LNPs or loaded LNPs) may be characterized by a variety of methods. For example, microscopy (e.g., transmission electron microscopy or scanning electron microscopy) may be used to examine the morphology and size distribution of a nanoparticle composition. Dynamic light scattering or potentiometry (e.g., potentiometric titrations) may be used to measure zeta potentials. Dynamic light scattering may also be utilized to determine particle sizes. Instruments such as the Zetasizer Nano ZS (Malvern Instruments Ltd, Malvern, Worcestershire, UK) may also be used to measure multiple characteristics of a nanoparticle composition, such as particle size, polydispersity index, and zeta potential.
# as §1, with “2. […]” for “2.”
# hEPO mRNA = assay: hEPO expression in CD1-mice after intravenous administration of nanoparticles; format: in vivo; settings: 6 h after intravenous administration, mRNA dose 0.5 mg/kg, N:P 3.4, compound:DSPC:cholesterol:PEG 2 50:10:38:2
# Method: The expression of hEPO mRNA in CD1-mice was measured 6 h after intravenous administration of nanoparticles comprising a compound of the disclosure, DSPC, cholesterol, and PEG 2 in a ratio of 50:10:38:2. […] Each composition was dosed to 8 animals at an mRNA dose of 0.5 mg/kg.
# [5] = Encapsulation efficiency (% EE), ribogreen; format: physicochemical; settings: nanoparticles, compound:DSPC:cholesterol:PEG 2 50:10:38:2 mol %
# Source text: (§3) The efficiency of encapsulation of a therapeutic and/or prophylactic describes the amount of therapeutic and/or prophylactic that is encapsulated or otherwise associated with a lipid nanoparticle (e.g., an empty LNP or a loaded LNP) after preparation, relative to the initial amount provided. The encapsulation efficiency is desirably high (e.g., close to 100%). The encapsulation efficiency may be measured, for example, by comparing the amount of therapeutic and/or prophylactic in a solution containing the lipid nanoparticle (e.g., an empty LNP or a loaded LNP) before and after breaking up the lipid nanoparticle (e.g., an empty LNP or a loaded LNP) with one or more organic solvents or detergents. Fluorescence may be used to measure the amount of free therapeutic and/or prophylactic (e.g., RNA) in a solution.
# as §1, with “2. […]” for “2.”
# serum protein ApoE = assay: ApoE binding affinity of nanoparticles (bead binding, flow cytometry)
# Method: The ApoE binding affinity, i.e., the affinity of binding between nanoparticles comprising compounds of the disclosure and the serum protein ApoE, was determined by binding the nanoparticles to beads, then incubating them with known quantities of […]. The quantity of protein bound to the nanoparticle was then determined by flow cytometry.
# [6] = Encapsulation efficiency (% EE), ribostar; format: physicochemical; settings: nanoparticles, compound:DSPC:cholesterol:PEG 2 50:10:38:2 mol %
# Source text: as §3, with “solution. For the lipid nanoparticles (e.g., empty LNPs or loaded LNPs) described herein, the encapsulation efficiency of a therapeutic and/or prophylactic may be at least 50%, for example 50%, 55%, 60%, 65%, 70%, 75%, 80%, 85%, 90%, 91%, 92%, 93%, 94%, 95%, 96%, 97%, 98%, 99%, or 100%. In some embodiments, the encapsulation efficiency may be at least 80%. In certain embodiments, the encapsulation efficiency may be at least 90%. In some embodiments, the encapsulation efficiency of the therapeutic and/or prophylactic agent is between 80% and 100%.” for “solution.”
# as §1, with “2. Tables 2a, 2b, and 3-5 summarize the characteristics of the formulations.” for “2.”
# as §2, with “Table 4 summarizes the surface hydrophobicity of nanoparticles comprising compounds of the disclosure as determined by Generalized Polarization by Laurdan (GPL). Laurdan,” for “Laurdan,”
Average N-GP [1],Relative % Area Bound by LNP [2] [%],LogIC50 (pKa) [3],PDI [4],Size (nm) [4] [nm],% EE (ribogreen) [5] [%],"Median Fluorescence Intensity, PE (serum protein ApoE)",% EE (ribostar) [6] [%],Structure (SMILES),Avg. [hEPO] mIU/mL (hEPO mRNA) [mIU/mL]
0.493,47.35,7.05,0.142,86.9,98.6,,,"CCCCCCCCC(CC)OC(=O)CCCCCCCN(CCCCCCCC(=O)OC(CCCCCCCC)CCCCCCCC)CCCNS(C)(=N)=O (stereo not drawn) [Compound 58, Heptadecan-9-yl 8-((3-(methylsulfonoamidimidamido)propyl)(8-oxo-8-(undecan-3-yloxy)octyl)amino)octanoate]",9.03E+04
0.822,1.12,6.71,0.109,63.2,96.6,,,"CCCCCCCCC(CC)OC(=O)CCCCCCCN(CCCCCCCC(=O)OC(CCCCCCCC)CCCCCCCC)CCCNS(=O)(=O)c1ccn(C)n1 (stereo not drawn) [Compound 68, Heptadecan-9-yl 8-((3-((1-methyl-1H-pyrazole)-3-sulfonamido)propyl)(8-oxo-8-(undecan-3-yloxy)octyl)amino)octanoate]",4.29E+05
0.713,4.86,6.81,0.155,73.2,96.8,,,"CCCCCCCCC(CC)OC(=O)CCCCCCCN(CCCCCCCC(=O)OC(CCCCCCCC)CCCCCCCC)CCCNS(C)(=O)=O (stereo not drawn) [Compound 65, Heptadecan-9-yl 8-((3-(methylsulfonamido)propyl)(8-oxo-8-(undecan-3-yloxy)octyl)amino)octanoate]",3.64E+05
,0,,0.154,77.1,92.9,56008,68.9,"CCCCCCCCC(CC)OC(=O)CCCCCCCN(CCCCCCCC(=O)OC(CCCCCCCC)CCCCCCCC)CCCNC1=NC(=O)N(C)C1=O (stereo not drawn) [Compound 9, Heptadecan-9-yl 8-((3-((1-methyl-2,5-dioxo-2,5-dihydro-1H-imidazol-4-yl)amino)propyl)(8-oxo-8-(undecan-3-yloxy)octyl)amino)octanoate]",5.32E+05
0.900,1.73,5.95,0.375,79.6,49.1,,,"CCCCCCCCC(CC)OC(=O)CCCCCCCN(CCCCCCCC(=O)OC(CCCCCCCC)CCCCCCCC)CCCNC(=S)C1(C)CC1 (stereo not drawn) [Compound 61, Heptadecan-9-yl 8-((3-(1-methylcyclopropane-1-carbothioamido)propyl)(8-oxo-8-(undecan-3-yloxy)octyl)amino)octanoate]",1.52E+03
0.762,0,6.74,0.16,72.7,98.3,,,"CCCCCCCCC(CC)OC(=O)CCCCCCCN(CCCCCCCC(=O)OC(CCCCCCCC)CCCCCCCC)CCCNS(=O)(=O)NC (stereo not drawn) [Compound 59, Heptadecan-9-yl 8-((3-((N-methylsulfamoyl)amino)propyl)(8-oxo-8-(undecan-3-yloxy)octyl)amino)octanoate]",2.49E+05
0.582,1.09,6.52,0.132,58.8,98.2,,,"CCCCCCCCC(CC)OC(=O)CCCCCCCN(CCCCCCCC(=O)OC(CCCCCCCC)CCCCCCCC)CCCNC1=NCC(=O)N1 (stereo not drawn) [Compound 57, Heptadecan-9-yl 8-((3-((4-oxo-4,5-dihydro-1H-imidazol-2-yl)amino)propyl)(8-oxo-8-(undecan-3-yloxy)octyl)amino)octanoate]",4.21E+04
0.812,0.93,6.56,0.108,66.8,97,,,"CCCCCCCCC(CC)OC(=O)CCCCCCCN(CCCCCCCC(=O)OC(CCCCCCCC)CCCCCCCC)CCCNS(=O)(=O)c1ncc[nH]1 (stereo not drawn) [Compound 69, Heptadecan-9-yl 8-((3-(1H-imidazole-2-sulfonamido)propyl)(8-oxo-8-(undecan-3-yloxy)octyl)amino)octanoate]",2.61E+05
0.888,2.90,7.27,0.176,91.2,96,,,"CCCCCCCCC(CC)OC(=O)CCCCCCCN(CCCCCCCC(=O)OC(CCCCCCCC)CCCCCCCC)CCCNc1ncncc1NC (stereo not drawn) [Compound 35, Heptadecan-9-yl 8-((3-((5-(methylamino)pyrimidin-4-yl)amino)propyl)(8-oxo-8-(undecan-3-yloxy)octyl)amino)octanoate]",3.71E+05
